Measured values as given in patent US20260078099A1, “COMPOUND, PREPARATION METHOD THEREOF, AND LIPID NANOPARTICLE AND PHARMACEUTICAL COMPOSITION” (priority 2023, published 2026).

Assays:
[1] = tested on: mice; assay: Bioluminescent study, intramuscular injection of F-luc mRNA LNPs; assay type: in vivo; settings: F-luc luminescence flux normalized to MC3; 0.25 mg/kg intramuscular, mice n=3, 6-hour time point
Outline: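 Mice (n=3) received LNP-formulated F-luc mRNA at 0.25 mg/kg intramuscularly. Bioluminescence was read 6 h after dosing. Test LNPs were made with an MC3 formulation, and PBS served as control in some groups.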

[2] = LNP encapsulation efficiency (Quant-it Ribogreen); assay type: physicochemical; settings: mRNA LNP, cationic lipid/DSPC/cholesterol/PEG-lipid 50:10:38.5:1.5
[3] = LNP size and PDI by dynamic light scattering; assay type: physicochemical; settings: mRNA LNP, cationic lipid/DSPC/cholesterol/PEG-lipid 50:10:38.5:1.5
[4] = LNP zeta potential; assay type: physicochemical; settings: mRNA LNP

| SMILES | Encapsulation efficiency (%) [2] | PDI [3] | Size (nm) [3] | Zeta potential (mV) [4] | Relative Total flux [1] |
| --- | --- | --- | --- | --- | --- |
| CCCCCCCC(C(=O)NCCCCCCCCCC(=O)OC(CCCCCC)CCCCCC)N(CCCN(CCO)C1CCCCC1)C(=O)CCCCCCCCCC(=O)OC(CCCCCC)CCCCCC (centres unmarked) [Compound B14] | 89.01% | 0.13 | 76.67 nm | 2.73 mV | A (A: ≥2) |
| CCCCCCCC(C(=O)NCCCCCCCCCC(=O)OC(CCCCCC)CCCCCC)N(CCN(CCO)C1CCCCC1)C(=O)CCCCCCCCCC(=O)OC(CCCCCC)CCCCCC (centres unmarked) [Compound B15] | 95.93% | 0.182 | 87.64 nm | 2.43 mV | A (A: ≥2) |
| CCCCCCCC(C(=O)NCCCCCCCCCC(=O)OC(CCCCCC)CCCCCC)N(CCN1CCN(CCO)CC1)C(=O)CCCCCCCCCC(=O)OC(CCCCCC)CCCCCC (centres unmarked) [Compound B16] | 94.62% | 0.593 | 57.19 nm | 5.42 mV | A (A: ≥2) |
| CCCCCCCC(C(=O)NCCCCCCCCCC(=O)OC(CCCCCC)CCCCCC)N(CCCN1CCN(CCO)CC1)C(=O)CCCCCCCCCC(=O)OC(CCCCCC)CCCCCC (centres unmarked) [Compound B17] | 92.99% | 0.185 | 64.2 nm | 14.20 mV | A (A: ≥2) |
| CCCCCCCC(C(=O)NCCCCCCCCCC(=O)OC(CCCCCC)CCCCCC)N(CCn1ccnc1)C(=O)CCCCCCCCCC(=O)OC(CCCCCC)CCCCCC (centres unmarked) [Compound B18] | 81.99% | 0.187 | 80.68 nm | 4.79 mV | A (A: ≥2) |
| CCCCCCCC(C(=O)NCCCCCCCCCC(=O)OC(CCCCCC)CCCCCC)N(CCCn1ccnc1)C(=O)CCCCCCCCCC(=O)OC(CCCCCC)CCCCCC (centres unmarked) [Compound B20] | 93.73% | 0.391 | 93.23 nm | −2.36 mV | A (A: ≥2) |
| CCCCCCCC(C(=O)NCCCCCCCCCC(=O)OC(CCCCCC)CCCCCC)N(CCCNC(=S)N(C)C)C(=O)CCCCCCCCCC(=O)OC(CCCCCC)CCCCCC (centres unmarked) [Compound B21] | 93.97% | 0.388 | 84.45 nm | 6.22 mV | B (B: ≥1 and <2) |
| CCCCCCCC(C(=O)NCCCCCCCCCC(=O)OC(CCCCCC)CCCCCC)N(CCCNc1c(NC)c(=O)c1=O)C(=O)CCCCCCCCCC(=O)OC(CCCCCC)CCCCCC (centres unmarked) [Compound B22] | 95.03% | 0.165 | 141.8 nm | −3.48 mV | B (B: ≥1 and <2) |
| CCCCCCCC(C(=O)NCCCCCCCCCC(=O)OC(CCCCCC)CCCCCC)N(COC(=O)CCN(C)C)C(=O)CCCCCCCCCC(=O)OC(CCCCCC)CCCCCC (centres unmarked) [Compound B23] | 93.95% | 0.214 | 68.16 nm | 12.50 mV | B (B: ≥1 and <2) |
| CCCCCCCC(C(=O)NCCCCCCCCCC(=O)OC(CCCCCC)CCCCCC)N(CCOC(=O)CCN(C)C)C(=O)CCCCCCCCCC(=O)OC(CCCCCC)CCCCCC (centres unmarked) [Compound B24] | 93.57% | 0.245 | 68.83 nm | −9.96 mV | A (A: ≥2) |
| CCCCCCCC(C(=O)NCCCCCCCCCC(=O)OC(CCCCCC)CCCCCC)N(CCOC(=O)CCN1CCCC1)C(=O)CCCCCCCCCC(=O)OC(CCCCCC)CCCCCC (centres unmarked) [Compound B25] | 69.52% | 0.095 | 64.2 nm | −3.38 mV | A (A: ≥2) |
| CCCCCCCCNC(=O)C(CCCCCCCC)N(CCCN(CCO)CCO)C(=O)CCCCCCC(=O)OC(CCCCCCCC)CCCCCCCC (centres unmarked) [Compound B26] | 92.99% | 0.22 | 105.63 nm | −1.65 mV | D (D: <0.1.) |
| CCCCCCCCNC(=O)C(CCCCCCCC)N(CCN(CC)CCO)C(=O)CCCCCCC(=O)OC(CCCCCCCC)CCCCCCCC (centres unmarked) [Compound B29] | 93.73% | 0.10 | 62.10 nm | 1.69 mV | A (A: ≥2) |
| CCCCCCCCNC(=O)C(CCCCCCCC)N(CCCN(C)CCO)C(=O)CCCCCCC(=O)OC(CCCCCCCC)CCCCCCCC (centres unmarked) [Compound B30] | 93.97% | 0.08 | 64.27 nm | 3.81 mV | A (A: ≥2) |
| CCCCCCCCNC(=O)C(CCCCCCCC)N(CCN(C)CCO)C(=O)CCCCCCC(=O)OC(CCCCCCCC)CCCCCCCC (centres unmarked) [Compound B31] | 95.03% | 0.10 | 61.00 nm | 4.83 mV | A (A: ≥2) |
| CCCCCCCCNC(=O)C(CCCCCCCC)N(CCN(CCO)CCO)C(=O)CCCCCCC(=O)OC(CCCCCCCC)CCCCCCCC (centres unmarked) [Compound B32] | 93.95% | 0.32 | 119.93 nm | 7.87 mV | A (A: ≥2) |
| CCCCCCCC/C=C\CCCCCCCCNC(=O)C(CCCCCCCC)N(CCCCCCCC/C=C\CCCCCCCC)C(=O)CCCN(C)C (centres unmarked) [Compound C1] | 82.31% | 0.108 | 60.62 nm | −9.90 mV | B (B: ≥1 and <2) |
| CCCCC/C=C\C/C=C\CCCCCCCCNC(=O)C(CCCCCCCC)N(CCCCCCCC/C=C\C/C=C\CCCCC)C(=O)CCCN1CCN(C)CC1 (centres unmarked) [Compound C5] | 91.26% | 0.198 | 64.58 nm | −14.75 mV | D (D: <0.1.) |
| CCCCCC/C=C\CCCCCCCC(C(=O)NCCCCCCCC/C=C\CCCCCCCC)N(CCCN(C)C)C(=O)CCCCCCC/C=C\CCCCCCCC (centres unmarked) [Compound C8] | 82.17% | 0.24 | 78.44 nm | −0.77 mV | A (A: ≥2) |

Continued, in another order:

| Encapsulation efficiency (%) [2] | PDI [3] | Size (nm) [3] | Zeta potential (mV) [4] | SMILES | Relative Total flux [1] |
| --- | --- | --- | --- | --- | --- |
| 43.24% | 0.163 | 113.2 nm | −5.91 mV | CCCCCCCCCCCNC(=O)C(CCCCCCCC)N(CCN(C)CCN(C(=O)CCCCCCCCCC(=O)OC(CCCCCC)CCCCCC)C(CCCCCCCC)C(=O)NCCCCCCCCCC)C(=O)CCCCCCCCCC(=O)OC(CCCCCC)CCCCCC (centres unmarked) [Compound D4] | C (C: ≥0.1 and <1) |
| 96.72% | 0.183 | 78.42 nm | −17.80 mV | CCCCCCC(CCCCCC)OC(=O)CCCCCCCCCNC(=O)CN(CCN(C)CCN(CC(=O)NCCCCCCCCCC(=O)OC(CCCCCC)CCCCCC)C(=O)CCCCCCCCCC(=O)OC(CCCCCC)CCCCCC)C(=O)CCCCCCCCCC(=O)OC(CCCCCC)CCCCCC [Compound D5] | A (A: ≥2) |
| 91.65% | 0.143 | 78.64 nm | −9.45 mV | CCCCCCC(CCCCCC)OC(=O)CCCCCCCCCNC(=O)C(CCCCCCCCCC(=O)OC(CCCCCC)CCCCCC)N(CCCN(CCO)CCO)C(=O)CCCN(C)CCO (centres unmarked) [Compound E2] | C (C: ≥0.1 and <1) |
| 89.28% | 0.166 | 93.07 nm | −2.06 mV | CCCCCCC(CCCCCC)OC(=O)CCCCCCCCCNC(=O)C(CCCCCCCCCC(=O)OC(CCCCCC)CCCCCC)N(CCCN(CCO)CCO)C(=O)CCCN(C)C (centres unmarked) [Compound E3] | C (C: ≥0.1 and <1) |
| 95.18% | 0.205 | 95.73 nm | 5.03 mV | CCCCCCC(CCCCCC)OC(=O)CCCCCCCCCNC(=O)C(CCCCCCCCCC(=O)OC(CCCCCC)CCCCCC)N(CCCN(CCO)CCO)C(=O)CCCN(CC)CC (centres unmarked) [Compound E4] | A (A: ≥2) |
| 93.90% | 0.183 | 84.36 nm | −19.40 mV | CCCCCCC(CCCCCC)OC(=O)CCCCCCCCCNC(=O)C(CCCCCCCCCC(=O)OC(CCCCCC)CCCCCC)N(CCCN(C)CCO)C(=O)CCCN(C)CCO (centres unmarked) [Compound E5] | B (B: ≥1 and <2) |
| 96.54% | 0.246 | 81.59 nm | −6.48 mV | CCCCCCC(CCCCCC)OC(=O)CCCCCCCCCNC(=O)C(CCCCCCCCCC(=O)OC(CCCCCC)CCCCCC)N(CCCN(C)C)C(=O)CCCN(C)C (centres unmarked) [Compound E6] | C (C: ≥0.1 and <1) |
| 92.11% | 0.13 | 95.52 nm | −16.13 mV | CCCCCCC(CCCCCC)OC(=O)CCCCCCCCCNC(=O)C(CCCCCCCCCC(=O)OC(CCCCCC)CCCCCC)N(CCCN(CC)CC)C(=O)CCCN(CC)CC (centres unmarked) [Compound E7] | C (C: ≥0.1 and <1) |
| 96.30% | 0.182 | 92.75 nm | −18.58 mV | CCCCCCC(CCCCCC)OC(=O)CCCCCCCCCNC(=O)C(CCCCCCCCCC(=O)OC(CCCCCC)CCCCCC)N(CCCN1CCCC1)C(=O)CCCN1CCCC1 (centres unmarked) [Compound E8] | B (B: ≥1 and <2) |
